The values that follow come from patent US20240197738A1, “COMPOUND 7AI IN TREATING EWING SARCOMA BY INHIBITING OTUD7A” (The University of North Carolina at Chapel Hill, priority 2021, published 2024).

The subject of one series is Ewing sarcoma cell. The experiment in a line: Ewing sarcoma cell growth in vitro (effective dose). The format is cell-based, human. As for the experimental part:
(§1) 2,000 indicated cells were seeded in each well of 96-well plates for MTT assays to monitor cell viability at indicated time periods using a method adapted from https://www.thermofisher.com/us/en/home/references/protocols/cell-culture/mtt-assay-protocol/vybrant-mtt-cell-proliferation-assay-kit.html. Briefly, at indicated time points post-cell seeding, 10 μL MTT solution was added into each well and incubated in the culture incubator (37° C. with 5% CO2) for 4 hrs. Then medium was removed and 100 μL DMSO was added into each well to dissolve the formazan crystal and incubated for 10 min at 37° C. After thorough mixing, absorbance at 540 nm was measured using the BioTek Cytation 5 Cell Imaging reader.

A further series relates to EWS-FLI1 mRNA. The experiment in a line: RT-PCR of EWS-FLI1 mRNA levels. As to conditions: 7Ai treatment. It is filed as cell-based, human. Here is the method:
Cells were isolated by dissociation with 0.05% Trypsin, followed by media quenching. The cells were spun down at 300×rcf for 5 minutes. The media was aspirated, the pellet was suspended with 1×PBS, and then the cells were spun down again. The PBS was aspirated. RNA extraction was performed with an RNA extraction kit (BioBasic BS584). The final elution step was done with 50 μL of RNAse-free water. The […] with the NanoDrop OneC (Thermo Fisher Scientific). Three biological replicates were performed for RNA extraction. Quartile analysis was done to exclude outliers and significance was determined by one-way ANOVA tests.

In another series the test system is Jurkat cells. The experiment in a line: Cell proliferation of Jurkat cells. It is filed as cell-based, human. As for the experimental part:
as §1

For series [1], the system named is A673 cells. Nature of the series: 2D colony formation assay, A673. The format is cell-based, human. As to conditions: A673, 2-week treatment. Here is the method:
Indicated cells were seeded into 6-well plates (300 or 600 cells/well) or 6 cm dishes (500 or 1,000 cells/dish) and cultured in 37° C. incubator with 5% C02 for ˜14 days (as indicated in figure legends) until formation of visible colonies. Colonies were washed with 1×PBS and fixed with 10% acetic acid/10% methanol for 30 min, stained with 20% acidic acid/10% Methanol with 0.1% crystal violet until colonies were visibly stained. Colonies were then washed by tap water and air-dried. Colony numbers were manually counted. At least two independent experiments were performed to generate the error bars.

A further series relates to MHH-ES-1 cells. The experiment in a line: Cell viability (MTT) assay, MHH-ES-1. It is filed as cell-based, human. As to conditions: MHH-ES-1, 3-day treatment. Here is the method:
as §1

The test system of the next series is EWS-FLI1. Nature of the series: Immunoblot of EWS-FLI1 protein abundance in cells. The format is cell-based, human. In general terms: Immunoblotting shows a protein as a band on a membrane.
A further series addresses T1, OTUD7B (Homo sapiens, UniProt Q6GQQ9).
T1 construct: endogenous in cells; host or cells: MHH-ES-1, EWS894
The experiment in a line: Immunoblot of known OTUD7B substrates (mTORC2, APC/Cdh1). The following applies: MHH-ES-1 or EWS894 cells, 12 hrs (FIG. 5E). It is filed as cell-based. As for the experimental part:
(§2) Cells were lysed in EBC buffer (50 mM Tris pH 7.5, 120 mM NaCl, 0.5% NP-40) or Triton X-100 buffer (50 mM Tris pH 7.5, 150 mM NaCl, 1% Triton X-100) supplemented with protease inhibitors (Complete Mini, Roche) and phosphatase inhibitors (phosphatase inhibitor cocktail set I and II, Calbiochem). The protein concentrations of whole cell lysates were measured by NanoDrop OneC using the Bio-Rad protein assay reagent as described previously. Equal amounts of whole cell lysates were resolved by SDS-PAGE and immunoblotted with indicated antibodies. For immunoprecipitations analysis, unless specified, 1000 μg lysates were incubated with the indicated antibody (1-2 μg) for 3-4 hr at 4° C. followed by 1 hr incubation with 10 μL Protein A magnetic beads (New England Biolabs). Or 1000 μg lysates containing tagged molecules were incubated with agarose beads coupled antibodies for the specific tag for 3-4 hr at 4° C. For endogenous IPs, incubation of cell lysates with antibodies was extended to overnight. The recovered immuno-complexes were washed five times with NETN buffer (20 mM Tris, pH 8.0, 100 mM NaCl, 1 mM EDTA and 0.5% NP-40) before being resolved by SDS-PAGE and immunoblotted with indicated antibodies.

Series [2] addresses OTUD7A binding to EWS-FLI1 (Homo sapiens, UniProt Q8TE49). The experiment in a line: OTUD7A binding to EWS-FLI1 in cells. The format is cell-based. Here is the method:
as §2

The next series deals with EWS894 cells. Nature of the series: Cell viability (MTT) assay, EWS894. It is filed as cell-based, human. As to conditions: EWS894, 3-day treatment. As for the experimental part: as §1
Series [3] has as its target T2, OTUD7A-mediated deubiquitination of EWS-FLI1 (Homo sapiens, UniProt Q8TE49).
T2 construct: Myc-Flag; expressed in transfected cells; host or cells: HEK293T
The experiment in a line: Ni-NTA pulldown ubiquitination assay in HEK293T cells. It is filed as cell-based. The following applies: compound added 10 hrs prior to cell collection (FIG. 5C). Here is the method:
as §2

Series [4] deals with foreskin fibroblast (FF) cells. Nature of the series: Cell viability (MTT) assay, foreskin fibroblast. The format is cell-based, human. As to conditions: 72 hrs (FIG. 5S). Here is the method: as §1
Another series deals with EWS-ERG. The experiment in a line: Immunoblot of EWS-ERG protein levels. It is filed as cell-based, human. As to conditions: A673 cells with EWS-ERG replacing EWS-FLI1. Here is the method:
as §2

In series [5] the test system is A673 cells. Nature of the series: Transwell migration assay, A673. It is filed as cell-based, human. As to conditions: A673 cells in vitro. Here is the method: 1×10^5 cells were plated in an […], 24-well plate chamber insert (Corning Life Sciences, catalog no. 3422) with serum free DMEM medium at the top of the insert and the same medium containing 20% fetal bovine serum (FBS) at the bottom of the insert. Cells were incubated for 24 hr and fixed with 4% paraformaldehyde for 15 min. After washing with PBS, cells at the top of the insert were scraped with a cotton swab. Cells adherent to the bottom were stained with 0.5% crystal violet blue for 60 min and then washed with double-distilled H2O (ddH2O). The positively stained cells were examined under the microscope.

The target of another series is T3, OTUD7A (Homo sapiens, UniProt Q8TE49).
T3 construct: endogenous in cells; host or cells: A673 and SK-N-MC
T3 sequence (Q8TE49 whole entry): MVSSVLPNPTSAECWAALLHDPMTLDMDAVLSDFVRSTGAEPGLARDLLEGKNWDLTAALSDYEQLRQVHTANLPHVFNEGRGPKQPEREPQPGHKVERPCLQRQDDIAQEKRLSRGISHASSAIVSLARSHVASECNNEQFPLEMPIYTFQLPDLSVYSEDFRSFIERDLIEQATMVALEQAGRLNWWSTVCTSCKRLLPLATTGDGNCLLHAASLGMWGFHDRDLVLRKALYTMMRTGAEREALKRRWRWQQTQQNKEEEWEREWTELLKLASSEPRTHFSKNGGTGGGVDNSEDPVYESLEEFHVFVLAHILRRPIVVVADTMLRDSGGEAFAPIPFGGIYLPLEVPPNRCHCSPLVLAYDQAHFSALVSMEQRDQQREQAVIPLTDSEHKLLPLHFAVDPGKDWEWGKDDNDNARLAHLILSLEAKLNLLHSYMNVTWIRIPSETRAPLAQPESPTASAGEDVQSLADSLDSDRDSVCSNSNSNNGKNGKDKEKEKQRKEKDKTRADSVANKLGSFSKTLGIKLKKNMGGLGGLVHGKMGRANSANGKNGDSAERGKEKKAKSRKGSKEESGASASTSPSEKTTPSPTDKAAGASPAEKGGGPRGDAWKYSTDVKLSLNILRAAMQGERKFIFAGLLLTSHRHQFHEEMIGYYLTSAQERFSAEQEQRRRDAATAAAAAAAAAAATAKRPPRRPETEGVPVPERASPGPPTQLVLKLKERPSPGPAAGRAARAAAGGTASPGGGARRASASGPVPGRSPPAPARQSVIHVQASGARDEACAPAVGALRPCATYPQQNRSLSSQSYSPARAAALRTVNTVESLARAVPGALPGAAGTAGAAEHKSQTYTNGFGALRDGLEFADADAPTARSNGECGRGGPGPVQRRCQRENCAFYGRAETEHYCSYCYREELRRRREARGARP
Nature of the series: Immunoblot of OTUD7A protein levels in Ewing cells. The format is cell-based. As to conditions: A673 and SK-N-MC cells, 10 μM, 12 hrs. As for the experimental part:
as §2
Each compound was dissolved in DMSO with a concentration of 10 mM. […]

T1 sequence (Q6GQQ9 whole entry): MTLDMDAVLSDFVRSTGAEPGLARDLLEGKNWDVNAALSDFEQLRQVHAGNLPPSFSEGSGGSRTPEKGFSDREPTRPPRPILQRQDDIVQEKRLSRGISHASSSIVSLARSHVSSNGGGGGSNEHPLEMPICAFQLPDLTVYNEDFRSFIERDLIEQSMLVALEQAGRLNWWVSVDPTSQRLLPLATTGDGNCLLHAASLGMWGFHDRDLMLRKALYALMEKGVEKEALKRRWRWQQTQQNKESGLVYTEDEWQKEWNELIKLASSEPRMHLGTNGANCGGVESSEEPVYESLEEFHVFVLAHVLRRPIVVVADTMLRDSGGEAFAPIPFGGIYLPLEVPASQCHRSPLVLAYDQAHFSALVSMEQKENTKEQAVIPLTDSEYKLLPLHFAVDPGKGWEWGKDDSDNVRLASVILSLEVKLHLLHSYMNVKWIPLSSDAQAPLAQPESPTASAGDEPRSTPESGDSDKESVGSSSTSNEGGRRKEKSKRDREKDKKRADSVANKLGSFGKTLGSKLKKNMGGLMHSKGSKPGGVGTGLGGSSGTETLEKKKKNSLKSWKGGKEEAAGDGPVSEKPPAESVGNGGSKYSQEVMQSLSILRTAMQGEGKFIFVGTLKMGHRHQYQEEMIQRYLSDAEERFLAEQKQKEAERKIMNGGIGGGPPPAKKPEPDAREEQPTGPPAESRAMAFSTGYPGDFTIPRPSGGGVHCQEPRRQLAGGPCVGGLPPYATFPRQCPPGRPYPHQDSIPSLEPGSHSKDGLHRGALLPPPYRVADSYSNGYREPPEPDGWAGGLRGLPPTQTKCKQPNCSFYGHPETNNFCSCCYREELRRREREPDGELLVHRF
Chain of OTUD7A binding to EWS-FLI1 (Q8TE49 whole entry): as the sequence (Q8TE49 whole entry) above
T2 sequence (Q8TE49 whole entry): as above

Turning to `Cn1nccc1-c1cc(-c2ccnn2C)n2nc(C(=O)Nc3cnn(Cc4c(Cl)cccc4Cl)c3)cc2n1` [7Ai], the “effective dose in retarding Ewing sarcoma cell growth in vitro” value in the series with Ewing sarcoma cell was “about 10 μM”. For the same compound, the “EWS-FLI1 mRNA levels” value with EWS-FLI1 mRNA is “did not affected EWS-FLI1 mRNA levels”. In addition, in the series on Jurkat cells, the cell proliferation entry is recorded as “reduced cell proliferation of Jurkat cells”. Also, the colony formation ability result in the series with A673 cells [1] is “reduced colony formation ability”. Further, the “proliferation (cell viability)” value was “reduced MHH-ES-1 proliferation” in the series with MHH-ES-1 cells, “reduced proliferation” in the series with EWS894 cells and “neglectable effects” in series [4]. The EWS-FLI1 protein abundance entry is “reduced EWS-FLI1 protein abundance in A673-teton-shOTUD7A” with EWS-FLI1 (A673-teton-shOTUD7A cells); “efficiently reduced EWS-FLI1 protein abundance in both Ewing sarcoma cells” in the series with EWS-FLI1 (A673 and MHH-ES-1 cells, doses of 7Ai for 3 days); “reduced EWS-FLI1 protein abundance in parental A673” in the series on EWS-FLI1 (parental A673 cells, 10 μM, 12 hrs (FIG. 5D)). The EWS-FLI1 protein levels result in the series on EWS-FLI1 (A673 and SK-N-MC cells, 10 μM, 12 hrs) is listed as “reduced EWS-FLI1 protein levels in both Ewing cells”. The “EWS-FLI1 protein levels, dose dependence” value in the series on EWS-FLI1 (A673 cells, indicated doses, 12 hrs (FIG. 5B)) is recorded as “reduced EWS-FLI1 protein levels in a dose-dependent manner”. The EWS-FLI1 protein expression result with EWS-FLI1 (MHH-ES-1, EWS894 (FIG. 5E, 12 hrs), SK-N-MC and EWS502 cells) was “efficiently reduced EWS-FLI1 protein expression”. Further, the “OTUD7B activities (known OTUD7B substrates mTORC2 and APC/Cdh1)” value on OTUD7B is listed as “did not significantly affect OTUD7B activities”. Besides, in series [2], the “OTUD7A binding to EWS-FLI1” value is recorded as “did not interfere with OTUD7A binding to EWS-FLI1”. For the same compound, the “OTUD7A-mediated deubiquitination of EWS-FLI1 in cells” value in series [3] is given as “efficiently blocked OTUD7A-mediated deubiquitination of EWS-FLI1”. Besides, the EWS-ERG protein levels entry in the series on EWS-ERG is “reduced EWS-ERG protein levels”. Moreover, the cell migratory ability result in the series with A673 cells [5] was “significantly reduced A673 cell migratory ability”. In addition, the OTUD7A protein levels entry at OTUD7A is “without affecting OTUD7A protein levels”.
